pIC50: −log10 of the molar value.

Usually pIC50 stands for the negative decadic logarithm of the IC50, by convention in mol/L.

One experiment addresses T1, COX I (Homo sapiens, UniProt P23219).
T1 construct: made in house; baculovirus-infected insect cells by own knowledge of the cited Barnett et al. 1994
The experiment is described as follows: Inhibition of COX I in vitro (radiometric assay, 14C arachidonic acid, partially purified enzyme). Type of experiment: biochemical. To be noted: partially purified COX I, 20 micromolar arachidonic acid, 10 min preincubation, room temperature; read-out: COX I IC50. As to the method: (§1) The COX I and COX II inhibitory activity of compounds of this invention in vitro was determined using partially purified COX I and COX II enzymes, prepared as described in J. Barnett et al., Biochim. Biophys. Acta, 1209:130--139 (1994).
(§2) COX I and COX II samples were diluted with Tris-HCl buffer (50 mM Tris-HCl pH 7.9) containing 2 mM EDTA and 10% glycerol and reconstituted by incubating first with 2 mM phenol for 5 minutes and then with 1 micromolar hematin for an additional 5 minutes. 125 μl of the reconstituted COX I or COX II enzyme were preincubated for 10 minutes at room temperature in a shaking water bath with the compounds of the invention dissolved in 2-15 μl of DMSO or the carrier vehicles (control samples). The enzyme reaction was initiated by adding 25 μl of 1-[14C] arachidonic acid (80,000-100,000 cpm/tube; 20 micromolar final concentration) and the reaction was allowed to continue for an additional 45 seconds. The reaction was terminated by adding 100 μl of 2N HCl and 750 μl water. An aliquot (950 μl) of the reaction mixture was loaded onto a 1 ml C18 Sep-Pak column (J. T. Baker, Phillipsburg, N.J.) which had been previously washed with 2-3 ml methanol and equilibrated with 5-6 ml distilled water. Oxygenated products were quantitatively eluted with 3 ml of acetonitrile/water/acetic acid (50:50:0.1, v/v) and the radioactivity in the eluate determined in a scintillation counter.

Another experiment addresses T2, COX II (Homo sapiens, UniProt P35354).
T2 construct: made in house; baculovirus-infected insect cells by own knowledge of the cited Barnett et al. 1994
T2 sequence (P35354 18-604): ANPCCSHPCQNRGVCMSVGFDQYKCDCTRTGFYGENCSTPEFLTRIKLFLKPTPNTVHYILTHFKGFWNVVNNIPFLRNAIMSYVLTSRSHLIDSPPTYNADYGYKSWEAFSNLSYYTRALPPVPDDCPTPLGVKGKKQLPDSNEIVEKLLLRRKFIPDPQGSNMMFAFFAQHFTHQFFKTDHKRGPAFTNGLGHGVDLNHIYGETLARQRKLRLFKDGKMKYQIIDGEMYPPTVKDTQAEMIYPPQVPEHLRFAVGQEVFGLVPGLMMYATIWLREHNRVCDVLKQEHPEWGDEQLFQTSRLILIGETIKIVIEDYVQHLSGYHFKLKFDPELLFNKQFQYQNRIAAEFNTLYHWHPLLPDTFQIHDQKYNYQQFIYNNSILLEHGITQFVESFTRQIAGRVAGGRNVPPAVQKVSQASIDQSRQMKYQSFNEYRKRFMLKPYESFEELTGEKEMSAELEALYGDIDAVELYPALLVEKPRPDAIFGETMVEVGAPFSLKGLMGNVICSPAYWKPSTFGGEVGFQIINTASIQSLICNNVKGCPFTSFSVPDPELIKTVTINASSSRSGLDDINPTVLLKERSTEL
Kind of experiment: Inhibition of COX II in vitro (radiometric assay, 14C arachidonic acid, partially purified enzyme). It is filed as biochemical. To be noted: partially purified COX II, 20 micromolar arachidonic acid, 10 min preincubation, room temperature; read-out: COX II IC50. As to the method: as §1, §2

T1 sequence (P23219 24-599): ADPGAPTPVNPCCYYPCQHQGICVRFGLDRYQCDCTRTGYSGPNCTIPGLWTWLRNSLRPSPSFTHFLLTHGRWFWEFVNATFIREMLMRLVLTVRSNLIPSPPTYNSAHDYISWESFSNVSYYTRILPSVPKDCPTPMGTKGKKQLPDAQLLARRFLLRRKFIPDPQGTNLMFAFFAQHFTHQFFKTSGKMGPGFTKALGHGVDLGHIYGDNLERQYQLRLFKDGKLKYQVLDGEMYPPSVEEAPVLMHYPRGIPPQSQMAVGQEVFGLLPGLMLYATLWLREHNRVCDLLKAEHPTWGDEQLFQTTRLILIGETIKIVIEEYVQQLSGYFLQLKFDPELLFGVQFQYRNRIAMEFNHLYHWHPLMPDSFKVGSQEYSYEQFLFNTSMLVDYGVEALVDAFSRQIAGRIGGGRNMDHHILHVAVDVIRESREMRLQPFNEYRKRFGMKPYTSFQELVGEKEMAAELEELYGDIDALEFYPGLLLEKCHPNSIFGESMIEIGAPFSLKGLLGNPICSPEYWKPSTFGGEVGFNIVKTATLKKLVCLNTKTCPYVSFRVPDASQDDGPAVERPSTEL

`Cc1cc(Cc2ccc(NS(C)(=O)=O)cc2)n(C)c1C(=O)c1ccc(Cl)cc1` [compound 1, N-{4-[5-(4-Chlorobenzoyl)-1,4-dimethyl-1H-pyrrol-2-ylmethyl]phenyl}methane-sulfonamide]: the pIC50 is 4.96 at COX I and 6.82 on COX II.
`Cc1cc(C(C)c2ccc(NS(C)(=O)=O)cc2)n(C)c1C(=O)c1ccc(Cl)cc1` (stereo not drawn) [compound 11, N-{4-[5-(4-Chlorobenzoyl)-1,4-dimethyl-1H-pyrrol-2-ylethan-1-yl]phenyl}-methanesulfonamide]: the values for the pIC50 at COX I and at COX II were 5.12 and 6.29, respectively.
Taken in the same sequence, the figures for `Cc1cc(Cc2c(F)cc(NS(C)(=O)=O)cc2F)n(C)c1C(=O)c1ccc(Cl)cc1` [compound 27, N-{3,5-Difluoro-4-[5-(4-chlorobenzoyl)-1,4-dimethyl-1H-pyrrol-2-ylmethyl]-phenyl}-methanesulfonamide] were 3.38 and 7.20.
Taken in the same sequence, the figures for `Cc1ccc(C(=O)c2ccc(Cc3ccc(NS(C)(=O)=O)cc3)n2C)cc1` [compound 28, N-{4-[5-(4-Methylbenzoyl)-1-methyl-1H-pyrrol-2-ylmethyl]phenyl}methanesulfonamide] were 4.48 and 6.72.
On to `Cc1ccc(C(=O)c2ccc(Cc3ccc(NS(C)(=O)=O)cc3Cl)n2C)cc1` [compound 31, N-{3-Chloro-4-[5-(4-methylbenzoyl)-1-methyl-1H-pyrrol-2-ylmethyl]phenyl}-methanesulfonamide], for which the values for the pIC50 at COX I and on COX II were 5.41 and 7.35, respectively.
For `Cc1ccc(C(=O)c2c(C)cc(Cc3ccc(NS(C)(=O)=O)cc3F)n2C)cc1` [compound 38, N-{3-Fluoro-4-[5-(4-methylbenzoyl)-1,4-dimethyl-1H-pyrrol-2-ylmethyl]phenyl}-methanesulfonamide], in that order: 6.57 and 7.19.
Regarding `Cc1cc(Cc2ccc(NS(C)(=O)=O)cc2F)n(C)c1C(=O)c1ccccc1` [compound 60, N-{3-Fluoro-4-[5-benzoyl-1,4-dimethyl-1H-pyrrol-2-ylmethyl]phenyl}methanesulfonamide], the pIC50 is 6.80 at COX I and 7.55 at COX II.
For `Cc1cc(Cc2ccc(NS(=O)(=O)CCO)cc2F)n(C)c1C(=O)c1ccccc1` [compound 63, N-{3-Fluoro-4-[5-benzoyl-1,4-dimethyl-1H-pyrrol-2-ylmethyl]phenyl}-2-(hydroxy)-ethanesulfonamide], in that order: 7.46 and 6.48.
For `Cn1c(Cc2ccc(NS(=O)(=O)CCO)cc2F)ccc1C(=O)c1ccccc1` [compound 66, N-{3-Fluoro-4-[5-benzoyl-1-methyl-1H-pyrrol-2-ylmethyl]phenyl}-2-(hydroxy)-ethanesulfonamide], in that order: 5.16 and 6.92.
For the compound `CCS(=O)(=O)Nc1ccc(Cc2cc(C)c(C(=O)c3ccccc3)n2C)c(F)c1` [compound 68, N-{3-Fluoro-4-[5-benzoyl-1,4-dimethyl-1H-pyrrol-2-ylmethyl]phenyl}ethanesulfonamide], the pIC50 on COX I was 6.07; on COX II it was 7.14.
As to `Cc1ccccc1C(=O)c1ccc(Cc2ccc(NS(C)(=O)=O)cc2F)n1C` [compound 71, N-{3-Fluoro-4-[5-(2-methylbenzoyl)-1-methyl-1H-pyrrol-2-ylmethyl]phenyl}-methanesulfonamide], the pIC50 at COX I is 4.42; at COX II, 6.80.
Take `COc1ccccc1C(=O)c1ccc(Cc2ccc(NS(C)(=O)=O)cc2F)n1C` [compound 72, N-{3-Fluoro-4-[5-(2-methoxybenzoyl)-1-methyl-1H-pyrrol-2-ylmethyl]phenyl}-methanesulfonamide]: the pIC50 at COX I is 3.58; on COX II it was 6.15.
For `CN(C)c1ccc(C(=O)c2ccc(Cc3ccc(NS(C)(=O)=O)cc3F)n2C)cc1` [compound 88, N-{3-Fluoro-4-[5-(4-dimethylaminobenzoyl)-1-methyl-1H-pyrrol-2-ylmethyl]phenyl}-methanesulfonamide], in that order: > 7.00 and 7.22.
For `COc1ccc(C(=O)c2c(C)cc(Cc3ccc(NS(C)(=O)=O)cc3F)n2C)cc1` [compound 95, N-{3-Fluoro-4-[5-(4-methoxybenzoyl)-1,4-dimethyl-1H-pyrrol-2-ylmethyl]phenyl}-methanesulfonamide], in that order: 7.05 and 7.22.
For the compound `CCS(=O)(=O)Nc1ccc(Cc2cc(C)c(C(=O)c3ccc(OC)cc3)n2C)c(F)c1` [compound 97, N-{3-Fluoro-4-[5-(4-methoxybenzoyl)-1,4-dimethyl-1H-pyrrol-2-ylmethyl]phenyl}-ethanesulfonamide], the pIC50 was > 7.00 at COX I and 7.42 at COX II.
In the case of `Cc1cc(Cc2ccc(NS(=O)(=O)CCO)cc2F)n(C)c1C(=O)c1ccc(F)cc1` [compound 104, N-{3-Fluoro-4-[5-(4-fluorobenzoyl)-1,4-dimethyl-1H-pyrrol-2-ylmethyl]phenyl}-2-(hydroxy)ethanesulfonamide], the pIC50 on COX I was 6.12; at COX II, 6.62.
For `COc1ccc(C(=O)c2ccc(Cc3ccc(NS(=O)(=O)CCO)cc3F)n2C)cc1` [compound 106, N-{3-Fluoro-4-[5-(4-methoxybenzoyl)-1-methyl-1H-pyrrol-2-ylmethyl]phenyl}-2-(hydroxy)ethanesulfonamide], in that order: 6.02 and 7.15.
As for `CS(=O)(=O)Nc1ccc(C2CCn3c(C(=O)c4ccccc4)ccc32)c(Cl)c1` (stereo not drawn) [compound 131, N-{3-Chloro-4-[5-Benzoyl-1,2-dihydro-3H-pyrrolizin-1-yl]phenyl}methanesulfonamide], the pIC50 at COX I was 6.70; on COX II, 7.11.
In the case of `COc1ccc(C(=O)c2ccc3n2CCC3c2ccc(NS(=O)(=O)CCO)cc2Cl)cc1` (stereo not drawn) [compound 133, N-{3-Chloro-4-[5-(4-methoxybenzoyl)-1,2-dihydro-3H-pyrrolizin-1-yl]phenyl}-2(hydroxy)ethanesulfonamide], the pIC50 on COX I is 7.35; at COX II, 7.24.
`Cc1cc(Cc2ccc(NS(N)(=O)=O)cc2)n(C)c1C(=O)c1ccc(Cl)cc1` [compound 141, 1-{4-[5-(4-Chlorobenzoyl)-1,4-dimethyl-1H-pyrrol-2-ylmethyl]phenyl}sulfamide]: the pIC50 on COX I is 5.41; at COX II it was 7.52.
Taken in the same sequence, the figures for `Cc1cc(Cc2ccc(NS(N)(=O)=O)cc2C#N)n(C)c1C(=O)c1ccc(Cl)cc1` [compound 147, 1-{3-Cyano-4-[5-(4-chlorobenzoyl)-1,4-dimethyl-1H-pyrrol-2-ylmethyl]phenyl}sulfamide] were 6.22 and 7.00.
With `Cc1ccc(C(=O)c2ccc(Cc3ccc(NS(N)(=O)=O)cc3F)n2C)cc1` [compound 154, 1-{3-Fluoro-4-[5-(4-methylbenzoyl)-1-methyl-1H-pyrrol-2-ylmethyl]phenyl}sulfamide], the pIC50 was 4.47 at COX I and 7.27 on COX II.
As for `Cc1cc(Cc2ccc(N)cn2)n(C)c1C(=O)c1ccc(Cl)cc1` [compound 333, {2-[5-(4-Chlorobenzoyl)-1,4-dimethyl-1H-pyrrol-2-ylmethyl]pyridin-5-yl}amine], the pIC50 on COX II was 4.11.

The record behind these values is patent publication US5952368A, “5-aroylpyrrol-2-ylmethylarene derivatives” (Syntex (U.S.A.) Inc., priority 1997, dated 1999).
